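All cell lines were grown in 96-well plates and treated with compound for 48 hours. At the TGI there is no net growth.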
Assays:
Assay in all cases: NCI tumour cell line growth inhibition, 48 h
[1] = system: MDA-MB-231 breast
[2] = system: OVCAR-8 ovarian
[3] = system: SF-295 CNS
[4] = system: HOP-62 NSCLC
[5] = system: OVCAR-3 ovarian
[6] = system: OVCAR-4 ovarian
[7] = system: BT-549 breast
[8] = system: CCRF-CEM leukemia
[9] = system: NCI-H226 lung
[10] = system: RXF 393 renal
[11] = system: PC-3 prostate
[12] = system: MDA-MB-435
[13] = system: SNB-75 CNS
[14] = system: COLO 205 colon
[15] = system: CAKI-1 renal
[16] = system: SK-MEL-28 melanoma
[17] = system: SK-MEL-5 melanoma
[18] = system: HCT-15 colon
[19] = system: UO-31 renal
[20] = system: 786-0 renal
[21] = system: HCT-116 colon
[22] = system: TK-10 renal
[23] = system: HS 578T breast
[24] = system: ACHN renal
[25] = system: SNB-19 CNS
[26] = system: A498 renal
[27] = system: A549 NSCLC
[28] = system: DU-145 prostate
[29] = system: U251 CNS
[30] = system: IGROV1 ovarian
[31] = system: MDA-N
[32] = system: NCI-H522 lung
[33] = system: EKVX NSCLC
[34] = system: SW-620 colon
[35] = system: NCI-H23 lung
[36] = system: SF-268 CNS
[37] = system: UACC-257 melanoma
[38] = system: SR leukemia
[39] = system: SK-OV-3 ovarian
[40] = system: MALME-3M melanoma
[41] = system: UACC-62 melanoma
[42] = system: M14 melanoma
[43] = system: K-562 leukemia
[44] = system: HOP-92 NSCLC
[45] = system: HCC-2998 colon
[46] = system: NCI/ADR-RES ovarian
[47] = system: OVCAR-5 ovarian
[48] = system: LOX IMVI melanoma
[49] = system: NCI-H460 lung
[50] = system: KM12 colon
[51] = system: SK-MEL-2 melanoma
[52] = system: MCF7 breast
[53] = system: RPMI-8226 leukemia
[54] = system: SF-539 CNS
[55] = system: HL-60(TB) leukemia
[56] = system: T-47D breast
[57] = system: SN12C renal
[58] = system: HT29 colon
[59] = system: MOLT-4 leukemia

In the case of CC1=CC(=O)[C@@H](O)[C@]2(C)[C@H]3[C@@]4(O)OC[C@]35[C@H]([C@@H](C)[C@H]4O)[C@@H](O)C(=O)O[C@@H]5C[C@@H]12, the TGI [1] is reported as 1.44 µM, the TGI [2] is reported as 5.82 µM and the TGI [3] is reported as 3.7 µM. For the same molecule, the TGI [4] was 1.08 µM, the TGI [5] was 2.11 µM and the TGI [6] was 6.66 µM. It also gave a TGI [7] of 5.17 µM, a TGI [8] of 1.45 µM and a TGI [9] of 0.694 µM. The TGI [10] was 4.46 µM, the TGI [11] was 1.67 µM and the TGI [12] was 1.73 µM. For the same molecule, the TGI [13] was 0.759 µM, the TGI [14] was 2.45 µM and the TGI [15] was 5.3 µM. It also gave a TGI [16] of 0.691 µM, a TGI [17] of 0.369 µM and a TGI [18] of 2.48 µM. For the same molecule, the TGI [19] was 6.71 µM, the TGI [20] was 2.13 µM and the TGI [21] was 0.288 µM. It also gave a TGI [22] of 7.76 µM, a TGI [23] of 1.19 µM and a TGI [24] of 5.4 µM. The TGI [25] was 3.69 µM, the TGI [26] was 4.45 µM and the TGI [27] was 15.5 µM. It also gave a TGI [28] of 1.69 µM, a TGI [29] of 0.379 µM and a TGI [30] of 3.42 µM. For the same molecule, the TGI [31] was 0.869 µM, the TGI [32] was 0.7 µM and the TGI [33] was 6.31 µM. For the same molecule, the TGI [34] was 6.78 µM, the TGI [35] was 1.7 µM and the TGI [36] was 0.778 µM. For the same molecule, the TGI [37] was 1.77 µM, the TGI [38] was over 100 µM and the TGI [39] was over 20.5 µM. For the same molecule, the TGI [40] was 0.445 µM, the TGI [41] was 6.29 µM and the TGI [42] was 1.04 µM. The TGI [43] was over 100 µM, the TGI [44] was 2.51 µM and the TGI [45] was 2.51 µM. It also gave a TGI [46] of 22.6 µM, a TGI [47] of 5.4 µM and a TGI [48] of 0.62 µM. It also gave a TGI [49] of 4.85 µM, a TGI [50] of 1.72 µM and a TGI [51] of 1.16 µM. It also gave a TGI [52] of 0.546 µM, a TGI [53] of over 100 µM and a TGI [54] of 0.261 µM.

Molecule CCCNC(=S)/N=C/c1c(O)c2ccccc2[nH]c1=O has a TGI [1] of over 100 µM, a TGI [2] of over 100 µM and a TGI [3] of over 100 µM. For the same molecule, the TGI [4] was over 100 µM, the TGI [5] was over 100 µM and the TGI [6] was over 100 µM. For the same molecule, the TGI [7] was over 100 µM, the TGI [8] was over 100 µM and the TGI [9] was over 100 µM. For the same molecule, the TGI [10] was over 100 µM, the TGI [11] was over 100 µM and the TGI [12] was over 100 µM. For the same molecule, the TGI [13] was over 100 µM, the TGI [14] was over 100 µM and the TGI [15] was over 100 µM. It also gave a TGI [17] of over 100 µM, a TGI [18] of over 100 µM and a TGI [19] of over 100 µM. It also gave a TGI [20] of over 100 µM, a TGI [55] of over 100 µM and a TGI [21] of over 100 µM. The TGI [22] was over 100 µM, the TGI [23] was over 100 µM and the TGI [24] was over 100 µM. For the same molecule, the TGI [25] was over 100 µM, the TGI [26] was over 100 µM and the TGI [27] was over 100 µM. The TGI [28] was over 100 µM, the TGI [29] was over 100 µM and the TGI [30] was over 100 µM. The TGI [31] was over 100 µM, the TGI [32] was over 100 µM and the TGI [33] was over 100 µM. For the same molecule, the TGI [34] was over 100 µM, the TGI [35] was over 100 µM and the TGI [56] was over 100 µM. The TGI [57] was over 100 µM, the TGI [36] was over 100 µM and the TGI [58] was over 100 µM. The TGI [37] was over 100 µM, the TGI [39] was over 100 µM and the TGI [41] was over 100 µM. It also gave a TGI [42] of over 100 µM, a TGI [43] of over 100 µM and a TGI [44] of over 100 µM. For the same molecule, the TGI [45] was over 100 µM, the TGI [46] was over 100 µM and the TGI [47] was over 100 µM. The TGI [48] was over 100 µM, the TGI [49] was over 100 µM and the TGI [50] was over 100 µM. The TGI [51] was over 100 µM, the TGI [59] was over 100 µM and the TGI [52] was over 100 µM. It also gave a TGI [53] of over 100 µM and a TGI [54] of over 100 µM.

For COc1ccc(OC)c(N2C(=O)CSC2c2cc(OC)c(OC)c(OC)c2)c1 (centres undefined), the TGI [1] was over 100 µM, the TGI [2] was over 100 µM and the TGI [3] was over 100 µM. It also gave a TGI [5] of over 100 µM, a TGI [6] of over 100 µM and a TGI [7] of over 100 µM. It also gave a TGI [8] of over 100 µM, a TGI [9] of over 100 µM and a TGI [11] of over 100 µM. It also gave a TGI [12] of 86 µM, a TGI [14] of over 100 µM and a TGI [15] of over 100 µM. The TGI [16] was over 100 µM, the TGI [17] was over 100 µM and the TGI [18] was over 100 µM. The TGI [19] was over 100 µM, the TGI [20] was over 100 µM and the TGI [55] was over 100 µM. For the same molecule, the TGI [21] was over 100 µM, the TGI [22] was over 100 µM and the TGI [23] was over 100 µM. It also gave a TGI [24] of over 100 µM, a TGI [25] of over 100 µM and a TGI [26] of over 100 µM. For the same molecule, the TGI [27] was over 100 µM, the TGI [28] was over 100 µM and the TGI [29] was over 100 µM. The TGI [30] was over 100 µM, the TGI [31] was over 100 µM and the TGI [32] was over 100 µM. It also gave a TGI [33] of over 100 µM, a TGI [34] of over 100 µM and a TGI [35] of over 100 µM. It also gave a TGI [57] of over 100 µM, a TGI [36] of over 100 µM and a TGI [58] of over 100 µM. For the same molecule, the TGI [37] was over 100 µM, the TGI [38] was over 100 µM and the TGI [39] was over 100 µM. It also gave a TGI [40] of over 100 µM, a TGI [41] of over 100 µM and a TGI [42] of over 100 µM. It also gave a TGI [43] of over 100 µM, a TGI [44] of over 100 µM and a TGI [45] of over 100 µM. It also gave a TGI [46] of over 100 µM, a TGI [47] of over 100 µM and a TGI [48] of over 100 µM. The TGI [49] was over 100 µM, the TGI [50] was over 100 µM and the TGI [51] was over 100 µM. For the same molecule, the TGI [59] was over 100 µM, the TGI [52] was over 100 µM and the TGI [53] was over 100 µM. It also gave a TGI [54] of over 100 µM.

CC(C)(C)c1cc(C(CO)OCCOCCO)cc(C(C)(C)C)c1O (centres undefined) gave a TGI [1] of over 100 µM, a TGI [2] of over 100 µM and a TGI [3] of over 100 µM. It also gave a TGI [4] of over 100 µM, a TGI [5] of over 100 µM and a TGI [6] of over 100 µM. It also gave a TGI [7] of over 100 µM, a TGI [8] of over 100 µM and a TGI [9] of over 100 µM. It also gave a TGI [10] of over 100 µM, a TGI [11] of over 100 µM and a TGI [12] of over 100 µM. For the same molecule, the TGI [13] was over 100 µM, the TGI [14] was over 100 µM and the TGI [15] was over 100 µM. The TGI [16] was over 100 µM, the TGI [17] was over 100 µM and the TGI [18] was over 100 µM. For the same molecule, the TGI [19] was over 100 µM, the TGI [20] was over 100 µM and the TGI [21] was over 100 µM. For the same molecule, the TGI [22] was over 100 µM, the TGI [23] was over 100 µM and the TGI [24] was over 100 µM. For the same molecule, the TGI [25] was over 100 µM, the TGI [26] was over 100 µM and the TGI [27] was over 100 µM. It also gave a TGI [28] of over 100 µM, a TGI [29] of over 100 µM and a TGI [30] of over 100 µM. It also gave a TGI [31] of over 100 µM, a TGI [32] of over 100 µM and a TGI [33] of over 100 µM. It also gave a TGI [34] of over 100 µM, a TGI [35] of over 100 µM and a TGI [56] of over 100 µM. For the same molecule, the TGI [57] was over 100 µM, the TGI [36] was over 100 µM and the TGI [58] was over 100 µM. The TGI [37] was over 100 µM, the TGI [39] was over 100 µM and the TGI [40] was over 100 µM. For the same molecule, the TGI [41] was over 100 µM, the TGI [42] was over 100 µM and the TGI [43] was over 100 µM. For the same molecule, the TGI [44] was over 100 µM, the TGI [46] was over 100 µM and the TGI [47] was over 100 µM. It also gave a TGI [48] of over 100 µM, a TGI [50] of over 100 µM and a TGI [51] of over 100 µM. The TGI [52] was over 100 µM, the TGI [53] was over 100 µM and the TGI [54] was over 100 µM.

— PubChem BioAssay (NCI)
